# In patent US20260274814A1, “THIENYL COMPOUNDS FOR THE TREATMENT OF A CENTRAL NERVOUS SYSTEM DISEASE OR DISORDER” (Coreterra Therapeutics, Inc., priority 2023, published 2026):
# Structures can show the parent of a compound that is named as a salt. Where two headings read alike, the source gives them in different places.
# Tested on: mice
# Experiment: Neuropharmacological Assay (SmartCube): automated behavioral signature of compound-treated mice compared with a database of reference drug classes
# Type: in vivo
# Details: for MED (minimal effective dose) / MED / minimal effective dose: i.p., that dose is shown; for AG / AN / AX / CE / HL / MS / PS / SH / UK / AD / AP: 3.0 mg/kg i.p., 15 min before test; for minimal effective dose: Mus musculus, ip
# Excerpt: Neurosci. 2011 Sep. 9; 5: 103 (doi: 10.3389/fnins.2011.00103) (“Roberds”). As reported in Roberds, because psychiatric diseases generally result from disorders of cell-cell communication or circuitry, intact systems are useful in detecting improvement in disease-relevant endpoints. These endpoints are typically behavioral in nature, often requiring human observation and interpretation. To facilitate testing of multiple compounds for behavioral effects relevant to psychiatric disease, PsychoGenics, Inc. (Tarrytown, NY, “PGI”) developed SmartCube™ an automated system in which behaviors of compound-treated mice are captured by digital video and analyzed with computer algorithms. (D. Brunner et al. Drug Discov. Today 2002, 7:S107-S112). PGI Analytical Systems uses data from SmartCube™ to compare the behavioral signature of a test compound to a database of behavioral signatures obtained using a large set of diverse reference compounds. (The composition of the database as well as validation of the method is further described in Roberds). In this way, the neuropharmacological effects of a test compound can be predicted by similarity to major classes of compounds, such as antipsychotics, anxiolytics and antidepressants.
# The SmartCube™ system produces an activity signature indicating the probability that the activity of the test compound at the administered dose matches a given class of neuropharmacological agents. (See, e.g., Roberds, FIGS. 2 and 3). The test compound is simultaneously compared against multiple classes of agents; thus, a separate probability is generated for each behavioral effect measured (e.g., anxiolytic activity, analgesic activity, etc.). In table 2 below, these probabilities are reported for each behavioral effect measured as described in Table 1 below.
# Provided compounds were dissolved in a mixture of Pharmasolve™ (N-methyl-2-pyrrolidone), polyethylene glycol and propylene glycol, and were injected i.p. 15 min. before the behavioral test. For each compound, injections were administered at 3 different doses. For each behavioral effect measured, results for the 3.0 mg/kg dose are presented. The potency of many of the compounds in the table was also determined in the SmartCube™ system. Test compounds were routinely examined at dose levels of 0.3, 1, 3 and 10 mg per kg (mpk), although the dose range was increased or decreased, if necessary, to obtain a full dose response curve. A compound's minimal effective dose (MED) is a measure of the compound's potency. The MED was defined as the dose (in mpk) having 45% or more total activity in SmartCube. If only one dose was tested, that dose is shown in the MED column of Table 2 even though the dose is not known to be the MED.
# [1] = dose having 45% or more total activity in SmartCube, if only one dose was tested, hydrochloride
# [2] = probability that activity matches this class of agents
# [3] = probability that activity matches this class of agents, hydrochloride, 3 mg/kg
# [4] = SmartCube class probability, hydrochloride, 3 mg/kg
# [5] = minimal effective dose: dose having 45% or more total activity in SmartCube, if only one dose tested
# [6] = minimal effective dose: dose having 45% or more total activity in SmartCube, if only one dose tested, read-out: MED
# [7] = dose having 45% or more total activity in SmartCube, if only one dose was tested, read-out: MED (minimal effective dose)
Compound,AG [2],AN [2],AX [2],CE [2],HL [2],MS [2],PS [2],SH [2],UK [2],AD (SmartCube class probability),AG (SmartCube class probability),AN (SmartCube class probability),AP (SmartCube class probability),AX (SmartCube class probability),CE (SmartCube class probability),HL (SmartCube class probability),MS (SmartCube class probability),PS (SmartCube class probability),SH (SmartCube class probability),UK (SmartCube class probability),also measured
"CNC1CCc2c(C)csc2C1 (single isomer, unassigned) [Compound 44, N, 3-dimethyl-4,5,6,7-tetrahydrobenzothiophen-6-amine hydrochloride]",ND (^ <4%),ND (^ <4%),ND (^ <4%),ND (^ <4%),ND (^ <4%),ND (^ <4%),ND (^ <4%),ND (^ <4%),ND (^ <4%),,,,,,,,,,,,MED (minimal effective dose) [1]: 1.0 mpk; AD [3]: ++ (≥24%); AP [3]: +++ (≥49%)
"NC1CCc2scc(C(F)(F)F)c2C1 (single isomer, unassigned) [Compound 255, 3-(trifluoromethyl)-4,5,6,7-tetrahydrobenzothiophen-5-amine hydrochloride]",,,,,,,,,,ND (^ <4%),ND (^ <4%),ND (^ <4%),ND (^ <4%),ND (^ <4%),ND (^ <4%),ND (^ <4%),ND (^ <4%),ND (^ <4%),ND (^ <4%),,UK [4]: ND (^ <4%); MED [5]: >3 mpk
"CNC1CCc2sccc2C1.Cl (single isomer, unassigned) [Compound 11, N-methyl-4,5,6,7-tetrahydrobenzothiophen-5-amine hydrochloride]",ND (^ <4%),ND (^ <4%),,ND (^ <4%),ND (^ <4%),ND (^ <4%),ND (^ <4%),ND (^ <4%),ND (^ <4%),,,,,,,,,,,,MED (minimal effective dose) [1]: 0.3 mpk; AD [3]: ND (^ <4%); AP [3]: ++++ (≥74%); AX [3]: ND (^ <4%)
"Cc1sc2c(c1F)CC(N)CC2 (stereo not drawn) [Compound 214, 3-fluoro-2-methyl-4,5,6,7-tetrahydrobenzothiophen-5-amine hydrochloride]",,,,,,,,,,ND (^ <4%),ND (^ <4%),ND (^ <4%),ND (^ <4%),ND (^ <4%),ND (^ <4%),ND (^ <4%),ND (^ <4%),ND (^ <4%),ND (^ <4%),+ (≥4%),minimal effective dose [6]: > 3 mg/kg
"NC1CCc2csc(C3CC3)c2C1 (stereo not drawn) [Compound 193, 3-cyclopropyl-4,5,6,7-tetrahydro-2-benzothiophen-5-amine hydrochloride]",,,,,,,,,,ND (^ <4%),ND (^ <4%),+ (≥4%),ND (^ <4%),ND (^ <4%),ND (^ <4%),ND (^ <4%),ND (^ <4%),ND (^ <4%),ND (^ <4%),ND (^ <4%),minimal effective dose [6]: > 3 mg/kg
"Cc1scc2c1CCC(C)(N)C2 (stereo not drawn) [Compound 200, 1,5-dimethyl-6,7-dihydro-4H-2-benzothiophen-5-amine hydrochloride]",,,,,,,,,,ND (^ <4%),ND (^ <4%),++ (≥24%),ND (^ <4%),ND (^ <4%),ND (^ <4%),+ (≥4%),ND (^ <4%),++ (≥24%),ND (^ <4%),ND (^ <4%),minimal effective dose [6]: 3 mg/kg
"CNC1COc2csc(C)c2C1 (stereo not drawn) [Compound 88, N, 5-dimethyl-3,4-dihydro-2H-thieno[3,4-b]pyran-3-amine hydrochloride]",ND (^ <4%),ND (^ <4%),ND (^ <4%),ND (^ <4%),ND (^ <4%),ND (^ <4%),ND (^ <4%),ND (^ <4%),ND (^ <4%),,,,,,,,,,,,minimal effective dose [7]: 3 mg/kg; AD [2]: ND (^ <4%); AP [2]: ++++ (≥74%)
"CNC1CCc2scc(-c3ccccc3)c2C1 (single isomer, unassigned) [Compound 233, N-methyl-3-phenyl-4,5,6,7-tetrahydrobenzothiophen-5-amine hydrochloride]",,,,,,,,,,ND (^ <4%),ND (^ <4%),ND (^ <4%),ND (^ <4%),ND (^ <4%),ND (^ <4%),ND (^ <4%),ND (^ <4%),ND (^ <4%),ND (^ <4%),,UK [4]: ND (^ <4%); MED [5]: >3 mpk
"CCc1sc(CC)c2c1CCC(NC)C2 (single isomer, unassigned) [Compound 118, 1,3-diethyl-N-methyl-4,5,6,7-tetrahydro-2-benzothiophen-5-amine hydrochloride]",ND (^ <4%),ND (^ <4%),ND (^ <4%),ND (^ <4%),ND (^ <4%),ND (^ <4%),ND (^ <4%),ND (^ <4%),,,,,,,,,,,,,"MED (minimal effective dose) (dose having 45% or more total activity in SmartCube, if only one dose was tested): >3 mpk; AD [2]: ND (^ <4%); AP [2]: ND (^ <4%); UK [3]: + (≥4%)"
"Cc1scc2c1CC(N)CC2 (single isomer, unassigned) [Compound 162, 3-methyl-4,5,6,7-tetrahydro-2-benzothiophen-5-amine hydrochloride]",,,,,,,,,,ND (^ <4%),ND (^ <4%),ND (^ <4%),ND (^ <4%),,ND (^ <4%),ND (^ <4%),ND (^ <4%),ND (^ <4%),ND (^ <4%),+ (≥4%),minimal effective dose [6]: 3 mg/kg; AX [4]: +++ (≥49%)
"CNC1CCc2c(C)sc(C)c2C1 (single isomer, unassigned) [Compound 30, N, 1,3-trimethyl-4,5,6,7-tetrahydro-2-benzothiophen-5-amine hydrochloride]",ND (^ <4%),ND (^ <4%),,ND (^ <4%),ND (^ <4%),ND (^ <4%),ND (^ <4%),,ND (^ <4%),,,,,,,,,,,,MED (minimal effective dose) [1]: 0.3 mpk; AD [2]: ND (^ <4%); AP [3]: ++++ (≥74%); AX [3]: ND (^ <4%); SH [3]: + (≥4%)
"CCNC1CCc2cscc2C1 (single isomer, unassigned) [Compound 171, N-ethyl-4,5,6,7-tetrahydro-2-benzothiophen-5-amine hydrochloride]",,,,,,,,,,ND (^ <4%),ND (^ <4%),ND (^ <4%),,,ND (^ <4%),ND (^ <4%),ND (^ <4%),ND (^ <4%),ND (^ <4%),ND (^ <4%),"AP [4]: ++++ (≥74%); AX [4]: ND (^ <4%); MED (minimal effective dose: dose having 45% or more total activity in SmartCube, if only one dose tested, hydrochloride): 3 mpk"
"Cc1cc2c(s1)CC(N(C)C)CC2.Cl (single isomer, unassigned) [Compound 34, N,N, 2-trimethyl-4,5,6,7-tetrahydrobenzothiophen-6-amine hydrochloride]",ND (^ <4%),ND (^ <4%),ND (^ <4%),ND (^ <4%),ND (^ <4%),ND (^ <4%),ND (^ <4%),ND (^ <4%),++ (≥24%),,,,,,,,,,,,minimal effective dose [7]: 10 mg/kg; AD [2]: ND (^ <4%); AP [2]: ND (^ <4%)
